# Experimental data reported in US12180518B2, “RNA polymerase variants for co-transcriptional capping” (priority 2019, dated 2024).
# Tests used:
# Assay type in all cases: biochemical, bacteriophage T7
# [1] = biological target: T7 RNA polymerase variant G47A/D506W+C-terminal G (D506W), SEQ ID NO: 57 (Escherichia phage T7, UniProt P00573, D506W/G47A); experiment: GAG/e6A/m6A cap analog incorporation in IVT reactions, LC-MS % capped RNA (D506W); conditions: 5 mM of each NTP
# Description: (§1) In vitro transcription reactions were performed using DNA template, one of three cap analogs (GAG cap, m6A cap, and e6A cap) at varying concentrations, and (1) a G47A+C-terminal G RNA polymerase variant (control polymerase variant; G47A+C-terminal G), (2) a G47A/D506W+C-terminal G RNA polymerase variant (D506W), (3) a G47A/S628W+C-terminal G RNA polymerase variant (S628W), (4) a G47A/D653W+C-terminal G RNA polymerase variant (D653W), and (5) a G47A/P657W+C-terminal G RNA polymerase variant (P657W). IVT reactions using the m6A and e6A cap analogs were incorporated using a DNA template that encodes for a 5′A followed by G. Following the IVT reactions, each experiment was subjected to LC-MS to determine the % capped RNA (i.e., percent of transcribed RNA comprising a cap).
# (§2) Conversely, even at 5 mM e6A, the control variant provided ˜40% of total RNA with incorporated e6A.
# (§3) Conversely, even at 5 mM m6A, the control variant provided less than 30% of total RNA with incorporated m6A.
# [2] = biological target: T7 RNA polymerase variant G47A/D653W+C-terminal G (D653W), SEQ ID NO: 59 (Escherichia phage T7, UniProt P00573, D653W/G47A); experiment: GAG/e6A/m6A/GGAG cap analog incorporation in IVT reactions, LC-MS % capped RNA (D653W)
# Description: as §1, §2, §3
# Conversely, even at 7.5 mM GGAG tetranuc, the control variant provided less than 70% of total RNA with incorporated GGAG.
# [3] = biological target: T7 RNA polymerase variant G47A/S628W+C-terminal G (S628W), SEQ ID NO: 58 (Escherichia phage T7, UniProt P00573, G47A/S628W); experiment: GAG/e6A/m6A cap analog incorporation in IVT reactions, LC-MS % capped RNA (S628W); conditions: 5 mM of each NTP
# Description: as §1, §2, §3
# [4] = biological target: T7 RNA polymerase variant G47A/P657W+C-terminal G (P657W), SEQ ID NO: 60 (Escherichia phage T7, UniProt P00573, G47A/P657W); experiment: GAG/e6A/m6A cap analog incorporation in IVT reactions, LC-MS % capped RNA (P657W); conditions: 5 mM of each NTP
# Description: as §1, §2, §3
# [5] = EC50 = concentration for 50% cap incorporation, vs G47A+C-terminal G
# Sequence of T7 RNA polymerase variant G47A/S628W+C-terminal G (S628W), SEQ ID NO: 58 (P00573 other isoform, or with tags, fused parts or gaps G47A/S628W): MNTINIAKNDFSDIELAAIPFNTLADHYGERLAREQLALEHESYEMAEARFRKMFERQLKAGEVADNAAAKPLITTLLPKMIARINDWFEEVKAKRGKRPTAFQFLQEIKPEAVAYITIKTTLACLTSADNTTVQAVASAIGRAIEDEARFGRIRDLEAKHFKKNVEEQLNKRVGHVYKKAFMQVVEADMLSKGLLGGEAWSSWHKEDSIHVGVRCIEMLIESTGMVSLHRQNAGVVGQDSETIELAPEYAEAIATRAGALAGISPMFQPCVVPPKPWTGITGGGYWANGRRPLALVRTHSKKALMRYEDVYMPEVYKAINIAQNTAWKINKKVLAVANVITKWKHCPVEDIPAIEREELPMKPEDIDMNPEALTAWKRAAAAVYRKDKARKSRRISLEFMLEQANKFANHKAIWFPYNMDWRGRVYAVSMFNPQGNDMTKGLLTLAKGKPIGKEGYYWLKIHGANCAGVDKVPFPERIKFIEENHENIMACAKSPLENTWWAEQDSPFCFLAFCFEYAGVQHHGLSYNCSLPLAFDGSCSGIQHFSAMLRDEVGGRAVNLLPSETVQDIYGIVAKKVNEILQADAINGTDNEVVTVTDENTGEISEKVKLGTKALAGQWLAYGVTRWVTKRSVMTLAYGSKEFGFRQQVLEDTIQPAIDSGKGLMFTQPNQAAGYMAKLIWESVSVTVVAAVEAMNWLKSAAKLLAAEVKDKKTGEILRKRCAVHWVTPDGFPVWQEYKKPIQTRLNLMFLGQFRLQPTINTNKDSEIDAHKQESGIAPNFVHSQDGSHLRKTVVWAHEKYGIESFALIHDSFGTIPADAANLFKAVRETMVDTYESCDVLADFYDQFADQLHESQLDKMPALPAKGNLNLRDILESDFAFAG
# Sequence of T7 RNA polymerase variant G47A/P657W+C-terminal G (P657W), SEQ ID NO: 60 (P00573 other isoform, or with tags, fused parts or gaps G47A/P657W): as the sequence (P00573 other isoform, or with tags, fused parts or gaps G47A/S628W) above, with W628S, P657W counted along it
# Sequence of T7 RNA polymerase variant G47A/D653W+C-terminal G (D653W), SEQ ID NO: 59 (P00573 other isoform, or with tags, fused parts or gaps G47A/D653W): as the sequence (P00573 other isoform, or with tags, fused parts or gaps G47A/S628W) above, with W628S, D653W counted along it
# Sequence of T7 RNA polymerase variant G47A/D506W+C-terminal G (D506W), SEQ ID NO: 57 (P00573 other isoform, or with tags, fused parts or gaps G47A/D506W): as the sequence (P00573 other isoform, or with tags, fused parts or gaps G47A/S628W) above, with D506W, W628S counted along it
structure (smiles),measurement,setting,value
CO[C@@H]1[C@H](OP(=O)(O)OC[C@H]2O[C@@H](n3cnc4c(=O)[nH]c(N)nc43)[C@H](O)[C@@H]2O)[C@@H](COP(=O)(O)OP(=O)(O)OP(=O)([O-])OC[C@H]2O[C@@H](n3c[n+](C)c4c(=O)[nH]c(N)nc43)[C@H](O)[C@@H]2O)O[C@H]1n1cnc2c(N)ncnc21 [GAG cap],"fold improvement (reduction) in EC50 for GAG cap incorporation, relative to the control variant",[1]; [5],1.28 fold
same,"EC50 for GAG cap incorporation, relative to the control variant (in words)","[2]; 5 mM of each NTP, vs G47A+C-terminal G",significant improvement
same,"fold improvement (reduction) in EC50 for GAG cap incorporation, relative to the control variant","[2]; 7.5 mM of each NTP, FIG. 4E, vs G47A+C-terminal G",12.3 fold
same,"fold improvement (reduction) in EC50 for GAG cap incorporation, relative to the control variant",[3]; [5],1.45 fold
same,"fold improvement (reduction) in EC50 for GAG cap incorporation, relative to the control variant",[4]; [5],2.27 fold
CO[C@@H]1[C@H](OP(=O)(O)OC[C@H]2O[C@@H](n3cnc4c(N)ncnc43)[C@H](O)[C@@H]2OP(=O)(O)OC[C@H]2O[C@@H](n3cnc4c(=O)[nH]c(N)nc43)[C@H](O)[C@@H]2O)[C@@H](COP(=O)(O)OP(=O)(O)OP(=O)([O-])OC[C@H]2O[C@@H](n3c[n+](C)c4c(=O)[nH]c(N)nc43)[C@H](O)[C@@H]2O)O[C@H]1n1cnc2c(=O)[nH]c(N)nc21 [GGAG tetranuc],"effective concentration of GGAG tetranuc cap analog for cap incorporation, relative to control variant (in words)","[2]; 7.5 mM of each NTP, FIG. 7",lesser effective concentrations
"CCNc1ncnc2c1ncn2[C@@H]1O[C@H](COP(=O)(O)OP(=O)(O)OP(=O)([O-])OC[C@H]2O[C@@H](n3c[n+](C)c4c(=O)[nH]c(N)nc43)[C@H](O)[C@@H]2O)[C@@H](OP(=O)(O)OC[C@H]2O[C@@H](n3cnc4c(=O)[nH]c(N)nc43)[C@H](O)[C@@H]2O)[C@H]1OC [e6A cap, m^7Gpppe^6A2′OmepG]","effective concentration of e6A cap analog for cap incorporation, relative to control variant (in words)",[1]; FIGS. 5A-5D,lesser effective concentrations
same,"effective concentration of e6A cap analog for cap incorporation, relative to control variant (in words)","[2]; 5 mM of each NTP, FIGS. 5A-5D",lesser effective concentrations
same,"effective concentration of e6A cap analog for cap incorporation, relative to control variant (in words)",[3]; FIGS. 5A-5D,lesser effective concentrations
same,"effective concentration of e6A cap analog for cap incorporation, relative to control variant (in words)",[4]; FIGS. 5A-5D,lesser effective concentrations
"CNc1ncnc2c1ncn2[C@@H]1O[C@H](COP(=O)(O)OP(=O)(O)OP(=O)([O-])OC[C@H]2O[C@@H](n3c[n+](C)c4c(=O)[nH]c(N)nc43)[C@H](O)[C@@H]2O)[C@@H](OP(=O)(O)OC[C@H]2O[C@@H](n3cnc4c(=O)[nH]c(N)nc43)[C@H](O)[C@@H]2O)[C@H]1OC [m6A cap, m^7Gpppm^6A2′OmepG]","effective concentration of m6A cap analog for cap incorporation, relative to control variant (in words)",[1]; FIGS. 6A-6D,lesser effective concentrations
same,"effective concentration of m6A cap analog for cap incorporation, relative to control variant (in words)","[2]; 5 mM of each NTP, FIGS. 6A-6D",lesser effective concentrations
same,"effective concentration of m6A cap analog for cap incorporation, relative to control variant (in words)",[3]; FIGS. 6A-6D,lesser effective concentrations
same,"effective concentration of m6A cap analog for cap incorporation, relative to control variant (in words)",[4]; FIGS. 6A-6D,lesser effective concentrations
